Assay [1] concerns ileal bile acid transporter. Description: Measurement of Bile Acid Transporter Inhibitory Activity in vivo ([3H]-taurocholic acid radioactivity in gall bladder bile). Set-up: species or system Syrian golden hamsters. The following applies: male hamsters; oral gavage 100 mg/10 ml/kg; [3H]-taurocholic acid 1.5 hours after; gall bladder bile at 24 hours. The method, then:
Measurement of Bile Acid Transporter Inhibitory Activity in vivo
Male Syrian golden hamsters were used. The hamsters were reared in cages and fed food and water ad libitum. Test compound was orally administered by gavage (100 mg/10 ml/kg) as a suspension in 0.5% w/v carboxymethyl cellulose aqueous solution. Each hamster was given orally 1 μCi of [^3 H]-taurocholic acid ([…]) in physiological saline 1.5 hours after administration of the test compound. Twenty four hours after the oral administration of [^3 H]-taurocholic acid, each of the hamsters was sacrificed and the gall bladder bile was collected. The total radioactivity in the bladder bile was determined and compared to a vehicle-treated group.
Percentage inhibition (%) was determined by the following formula:
Inhibition percentage=100-(radioactivity in the treated
group)/(radioactivity in the control group)×100

In assay [2] the target is T1, human ileal bile acid transporter (Homo sapiens, UniProt Q12908).
T1 construct: expressed in transfected cells
T1 sequence (Q12908 1-348): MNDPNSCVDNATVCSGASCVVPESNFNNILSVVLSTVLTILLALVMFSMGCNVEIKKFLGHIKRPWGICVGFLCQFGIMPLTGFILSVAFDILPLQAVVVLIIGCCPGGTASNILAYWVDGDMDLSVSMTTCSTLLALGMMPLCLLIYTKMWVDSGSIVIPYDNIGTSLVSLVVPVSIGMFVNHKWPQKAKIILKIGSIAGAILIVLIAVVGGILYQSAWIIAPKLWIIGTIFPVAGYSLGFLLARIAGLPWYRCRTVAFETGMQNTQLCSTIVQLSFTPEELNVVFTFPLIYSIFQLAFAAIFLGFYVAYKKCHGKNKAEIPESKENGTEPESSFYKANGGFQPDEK
Nature of the assay: Measurement of Bile Acid Transporter Inhibitory Activity in vitro (uptake of [3H]-taurocholic acid into hIBAT-expressing Caco-2 cells). In kind it is cell-based. The following applies: 0.1 μCi [3H]-taurocholic acid, 37° C., 1 hour. An excerpt:
Measurement of Bile Acid Transporter Inhibitory Activity in vitro
1) Insertion of human ileal bile acid transporter cDNA into a mammalian expression vector
Human ileal bile acid transporter cDNA (GenBank accession number U10417, hereinafter abbreviated as "hIBAT") was amplified by PCR using a human kidney cDNA library ("Marathon-Ready"™, Clontech Laboratories) as a template. The sense oligonucleotide primer used was 5'-[…]-3' (corresponding to residues 512-533 of hIBAT cDNA: Sequence ID No. 1) while the antisense oligonucleotide primer used was 5'-[…]-3' (corresponding to residues 1649-1670 of hIBAT cDNA: Sequence ID NO. 2). […]
After incubation, the cells were washed 5 times with ice cooled PBS (phosphate buffered saline) containing 0.2% bovine serum albumin and 1 mM non-radioactive taurocholic acid. […] Radioactivity was measured using a "Top Count" (Packard) liquid scintillation counter.
By measuring the radioactivity of the control (no text compound) and comparing this with the radioactivity obtained from the cells exposed to test compound at various, predetermined concentrations, it was possible to determine a percentage inhibition (%) and to obtain an IC50 for the test compound against the ileal bile acid transporter activity.
On the technique in general: Caco-2 cells form a polarised layer with tight junctions and transporters.

Turning to `C[C@H](NC(c1ccccc1)c1cccc(Nc2c(N)c(=O)c2=O)c1)c1ccccc1` (single isomer, unassigned) [2 (isomer B)], the Percentage inhibition in assay [1] worked out at 61.87%. Besides, the IC50 (usually the concentration that inhibits the measured activity by half) in assay [2] was 13.8 µM.

Turning to `COc1ccc(C(N[C@H](C)c2cc(F)cc(F)c2)c2cccc(Nc3c(O)c(=O)c3=O)c2)cc1` (single isomer, unassigned) [64(e)], the Percentage inhibition in assay [1] is 80.0%.

The values above are taken from US6329405A, “Cyclobutene derivatives, their preparation and their therapeutic uses” (Sankyo Company, Limited, priority 1999, dated 2001).
